Reference: US20030190671A1, “Use of metabolic phenotyping in individualized treatment with amonafide” (McGill University, priority 2001, published 2003)
Marks after values point to notes of the source that are not given here.

What was measured:
Format in all cases: binding, rabbit
AAMU-Ab = assay: Competitive antigen ELISA, cross-reactivity of AAMU-Ab; details: for % Cross-Reaction AAMU-Ab: competitive antigen ELISA, 0 = absence of inhibition or inhibition no higher than 40% at the highest concentration tested (5×10^−3 M)
Procedure: (§1) Competitive Antigen ELISA
(§2) Buffers and water without additives are filtered through millipore filters and kept for 1 week. BSA, antibodies, Tween™ 20 and horse radish peroxidase conjugates are added to these buffers and water just prior to use. Urine samples are usually collected 4 hours after drinking a cup of coffee (instant or brewed with approximately 100 mg of caffeine per cup) and stored at −80° C. The urine samples are diluted 10 times with sodium phosphate buffer (620 mosm, pH 7.50) and are subsequently diluted with water to give concentrations of AAMU and 1X no higher than 3×10^−6 M in the ELISA. All the pipettings are done with an eight-channel pipette, except those of the antibody and sample solutions. Starting with the last well, 100 μL of a carbonate buffer (100 mM, pH 9.6) containing 2.5 μg mL-1 antibodies are added to each well. After 90 min. at room temperature, the wells are washed three times with 100 mL of TPB: isotonic sodium phosphate buffer (310 mosm, pH 7.50) containing 0.05% Tween™ 20.
(§3) After the initial wash, unoccupied sites are blocked by incubation for 90 min. at room temperature with 100 μL TBP containing 3% BSA. The wells are washed four times with 100 […] TPB. […] The microplate is gently shaken with an orbital shaker at room temperature for 3-4 hours. The wells are washed three times with 100 μL TPB containing 1% BSA and three times with water containing 0.05% Tween™ 20. To the washed plate is added 150 μL of a substrate buffer composed of citric acid (25 mM) and sodium phosphate dibasic buffer (50 mM, pH 5.0) containing 0.06% hydrogen peroxide and 0.04% o-phenylenediamine hydrochloride.
as §2, with “were” for “are”, “They were” for “The urine samples are”, “mL^−1” for “mL-1”, “was pipetted.” for “are added to each well.”, “μL” for “mL”
(§4) After the initial wash, unoccupied sites were blocked by incubation for 90 min. at room temperature with 100 μL TBP containing 3% BSA. The wells were washed four times with 100 μL TPB. […] The microplate was gently shaken with an orbital shaker at room temperature for 3-4 hours. The wells were washed three times with 100 μL with TPB containing 1% BSA and three times with water containing 0.05% Tween™ 20. To the washed plate was added 150 μL of a substrate buffer composed of citric acid (25 mM) and sodium phosphate dibasic buffer (50 mM, pH 5.0) containing 0.06% hydrogen peroxide and 0.04% o-phenylenediamine hydrochloride. After 20 min. at room temperature with shaking, the reaction was stopped with 50 μL of 2.5 N HCl.
(§5) The cross reactivities of AAMU-Ab and 1X-Ab were tested using a wide variety of caffeine metabolites and structural analogs (Table 2 below).

1,7-DMX-Ab = assay: Competitive antigen ELISA, antibody specificity of 1,7-DMX-Ab; details: hypothesized ideal antibody specificity; 0 = no inhibition or no higher than 40% at 5×10^−3 M
Procedure: as §1
(§6) BSA, antibodies, Tween™ 20 and horse radish peroxidase are added to buffers and water just prior to use. Urine samples are usually collected four hours after drinking a cup of coffee (instant or brewed with approximately 100 mg of caffeine per cup) and stored at −20° C. as 1-mL aliquots in 1.5-mL microtubes. For the ELISA, the urine samples are diluted with isotonic sodium phosphate buffer, pH 7.5 (310 mosM) to give concentrations of caffeine, 1.7-DMX and 1,7-DMU no higher than 3×10^−6 M in the microtiter plate wells. Wells of the ELISA plate are washed with a Nunc-Immuno wash 12 washer. Sixteen milliliters of a solution of 6.6 μg ml^−1 of isolated IgG antibodies is prepared in a 100 mM sodium carbonate buffer, pH 9.6, and 150 μL of this solution is pipetted in each well of a microtiter plate using a eight channel pipet (Brinkmann Transferpette™-8 50-200 μL) and 200 μL Flex tips from Brinkmann). After coating the wells with antibodies at 4° C. for 20 hours, the wells are washed 3 times with the isotonic sodium phosphate buffer containing 0.05% Tween™ 20 (IPBT) and properly drained by inverting the plate and absorbing the liquid on to a piece of paper towel. Thirty milliliters of a solution of a IPBT solution containing 1% BSA is prepared and 150 μL of this solution is pipetted in each well using a eight channel pipet (Brinkmann Transferpet-te™-8 50-200 μL) and 200 μL yellow tips (Sarstedt yellow tips for P200 Gilson Pipetman). After 3 hours at room temperature, the wells are washed 3 times with IPBT solution and drained. Samples of 400 μL for determination of caffeine, 1,7-DMX and 1,7-DMU are prepared in 1.5-mL microtubes using Sarstedt yellow tips and a P200 Gilson Pipetman. Then, 200 μL of each sample are pipetted in duplicate in a Falcon 96-well microtest tissue culture plate according to the pattern shown in FIG. 23, using Sarstedt yellow tips and a P200 Gilson Pipetman. Using an eight channel pipet (Brinkmann Transferpette™-8 50-200 μL) and changing the tips of the eight channel pipet (200 μL Flex tips from Brinkmann) at each row, 150 μL of samples are transferred in the corresponding wells of a 96-well ELISA microtiter plate coated with antibodies. After the addition of the samples, the microtiter plates are covered and left standing at room temperature for 2 h. While the plate is left standing the substrate buffer without the hydrogen peroxide and o-phenylenediamine hydrochloride is prepared (25 mM citric acid and 50 mM sodium phosphate dibasic buffer, pH 5.0). The microtiter plate is washed 3 times with the IPBT solution and 3 times with a 0.05% Tween 20 solution and drained. Then, 50 […] of hydrogen peroxide and 40 mg of o-phenylenediamine are added to the substrate buffer. One hundred fifty microliters (150 μL) of the substrate buffer solution is then added to each well using a eight channel pipet (Brinkmann Transferpette™-8 50-200 μL) and 200 μL Flex tips (Brinkmann). The microtiter plate is covered and shaken for 25-30 min at room temperature and the enzymatic reaction is stopped by adding 50 μL/well of a 2.5 N HCl solution using an eight channel pipet (Brinkmann Transferpette™-8 50-200 μL) and 200 μL Flex tips (Brinkmann).

1X-Ab = assay: Competitive antigen ELISA, cross-reactivity of 1X-Ab; details: for % Cross-Reaction 1X-Ab: competitive antigen ELISA, 0 = absence of inhibition or inhibition no higher than 40% at the highest concentration tested (5×10^−3 M)
Procedure: as §1, §2, §3
as §2, with “were” for “are”, “They were” for “The urine samples are”, “mL^−1” for “mL-1”, “was pipetted.” for “are added to each well.”, “μL” for “mL”
as §4, §5

Caffeine-Ab = assay: Competitive antigen ELISA, antibody specificity of caffeine-Ab; details: hypothesized ideal antibody specificity; 0 = no inhibition or no higher than 40% at 5×10^−3 M
Procedure: as §1, §6

1,7-DMU-Ab = assay: Competitive antigen ELISA, antibody specificity of 1,7-DMU-Ab; details: hypothesized ideal antibody specificity; 0 = no inhibition or no higher than 40% at 5×10^−3 M
Procedure: as §1, §6

Row | SMILES | % Cross-Reaction AAMU-Ab (AAMU-Ab) | % Cross-reaction 1,7-DMX-Ab (1,7-DMX-Ab) | % Cross-Reaction 1X-Ab (1X-Ab) | % Cross-reaction Caffeine-Ab (Caffeine-Ab) | % Cross-reaction 1,7-DMU-Ab (1,7-DMU-Ab) | IC50 (1X-Ab; read-out: concentration required for 50% inhibition in the competitive antigen ELISA, 1X-Ab) | IC50 (AAMU-Ab; read-out: concentration required for 50% inhibition in the competitive antigen ELISA, AAMU-Ab)
1 | Cn1c(=O)c2c(ncn2C)n(C)c1=O [1,3,7-Trimethyl Xanthine (Caffeine), 1,3,7-trimethylxanthine] | 0% | 0^a % | 0% | 100% | 0% | – | –
2 | Cn1c(=O)c2c([nH]c(=O)n2C)n(C)c1=O [1,3,7-Trimethyluric acid] | – | 0% | – | 0% | 0% | – | –
3 | Cn1c(=O)c2[nH]cnc2n(C)c1=O [1,3-Dimethyl Xanthine (Theophylline), 1,3-Dimethyl Xanthine] | 0% | 0% | 0.2% | 0% | 0% | – | –
4 | Cn1c(=O)c2[nH]c(=O)[nH]c2n(C)c1=O [1,3-Dimethyluric acid] | – | 0% | – | 0% | 0% | – | –
5 | Cn1c(=O)[nH]c2ncn(C)c2c1=O [1,7-Dimethyl Xanthine (Paraxanthine), 1,7-dimethylxanthine] | 0% | 100% | 0.5% | 0% | 0% | – | –
6 | Cn1c(=O)[nH]c2[nH]c(=O)n(C)c2c1=O [1,7-Dimethyluric acid, 1,7-dimethyluric acid] | 0% | 0% | 0% | 0% | 100% | – | –
7 | Cn1c(=O)[nH]c2nc[nH]c2c1=O [1-Methyl Xanthine (1X), 1-methylxanthine] | 0% | 0% | 100% | 0% | 0% | 10 µM | –
8 | Cn1c(=O)[nH]c2[nH]c(=O)[nH]c2c1=O [1-Methyluric acid, 1-methyluric acid] | 0% | 0% | 11% | 0% | 0% | – | –
9 | Cn1cnc2c1c(=O)[nH]c(=O)n2C [3,7-Dimethyl Xanthine (Theobromine), 3,7-Dimethyl Xanthine] | 0% | 0% | 0% | 0% | 0% | – | –
10 | Cn1c(=O)[nH]c(=O)c2c1[nH]c(=O)n2C [3,7-Dimethyluric acid] | – | 0% | – | 0% | 0% | – | –
11 | Cn1c(=O)[nH]c(=O)c2[nH]cnc21 [3-Methyl Xanthine] | 0% | 0% | 0% | 0% | 0% | – | –
12 | Cn1c(=O)[nH]c(=O)c2[nH]c(=O)[nH]c21 [3-Methyluric acid] | – | 0% | – | 0% | 0% | – | –
13 | CC(=O)Nc1c(N)n(C)c(=O)n(C)c1=O [5-Acetamino-6-amino-1,3-dimethyluracil] | 0% | 0% | 0% | 0% | 0% | – | –
14 | CC(=O)Nc1c(N)[nH]c(=O)[nH]c1=O [5-Acetamino-6-amino-uracil] | 0.6% | 0% | 0% | 0% | 0% | – | –
15 | CC(=O)Nc1c(N)n(C)c(=O)[nH]c1=O [5-acetamino-6-amino-1-methyluracil] | 100% | 0% | 0% | 0% | 0% | – | 1.5 µM
16 | Cn1c(=O)[nH]c2[nH]c(=O)[nH]c(=O)c21 [7-Methyluric acid] | – | 0% | – | 0% | 0% | – | –
